Experimental data reported in ChEMBL document CHEMBL4007389, “Discovery and evaluation of inhibitors to the immunosuppressive enzyme indoleamine 2,3-dioxygenase 1 (IDO1): Probing the active site-inhibitor interactions” (Eur J Med Chem, 2017).

Assays:
Homo sapiens = organism: Homo sapiens; assay: Selectivity ratio of IC50 for recombinant human IDO1 S167A mutant expressed in Escherichia coli SG13009(pREP4) to IC50 for recombinant human IDO1 expressed in bacterial expression system
[1] = biological target: T1, Indoleamine 2,3-dioxygenase 1 (Homo sapiens, UniProt P14902); settings: 40 uM
Target sequence in this assay (P14902 whole entry, looked up): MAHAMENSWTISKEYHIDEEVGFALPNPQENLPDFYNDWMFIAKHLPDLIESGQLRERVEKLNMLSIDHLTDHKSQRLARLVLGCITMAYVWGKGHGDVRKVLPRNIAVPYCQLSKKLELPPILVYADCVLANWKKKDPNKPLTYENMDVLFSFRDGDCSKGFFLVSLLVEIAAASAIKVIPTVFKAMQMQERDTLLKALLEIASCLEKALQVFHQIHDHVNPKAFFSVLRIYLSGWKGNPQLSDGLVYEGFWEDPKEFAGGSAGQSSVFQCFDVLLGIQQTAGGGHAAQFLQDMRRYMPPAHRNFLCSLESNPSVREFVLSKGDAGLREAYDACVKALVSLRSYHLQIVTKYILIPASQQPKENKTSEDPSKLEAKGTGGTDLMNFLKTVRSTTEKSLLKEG

[2] = biological target: T1, Indoleamine 2,3-dioxygenase 1; assay: Inhibition of recombinant human IDO1 expressed in bacterial expression system using L-Tryptophan as substrate after 25 mins in absence of GSH and presence of tween20 by fluorescence assay
Target sequence in this assay (P14902 whole entry): as the sequence (P14902 whole entry, looked up) above

[3] = biological target: Indoleamine 2,3-dioxygenase 1 (Homo sapiens, UniProt P14902, S167A)
Chain of Indoleamine 2,3-dioxygenase 1 (Homo sapiens, UniProt P14902, S167A) (P14902 whole entry S167A): as the sequence (P14902 whole entry, looked up) above, with S167A counted along it

LLTC cell line = assay: Cytotoxicity against mouse LLTC cells assessed as reduction in cell viability after 24 hrs in presence of GSH by MTT assay; assay type: cell-based
[4] = Cytotoxicity against mouse LLTC cells assessed as reduction in cell viability after 24 hrs by MTT assay; assay type: cell-based; settings: read-out: LC50
[5] = biological target: T1, Indoleamine 2,3-dioxygenase 1; assay: Inhibition of recombinant human IDO1 expressed in bacterial expression system using L-Tryptophan as substrate after 25 mins in presence of GSH and tween20 by fluorescence assay
Target sequence in this assay (P14902 whole entry): as the sequence (P14902 whole entry, looked up) above

[6] = biological target: T1, Indoleamine 2,3-dioxygenase 1; assay: Inhibition of full length recombinant human His-tagged IDO1 expressed in mouse LLTC cells using L-tryptophan as substrate after 24 hrs in presence of GSH; assay type: cell-based
Target sequence in this assay (P14902 whole entry): as the sequence (P14902 whole entry, looked up) above

[7] = biological target: T1, Indoleamine 2,3-dioxygenase 1; assay: Inhibition of full length recombinant human His-tagged IDO1 expressed in mouse LLTC cells using L-tryptophan as substrate after 24 hrs; assay type: cell-based
Target sequence in this assay (P14902 whole entry): as the sequence (P14902 whole entry, looked up) above

[8] = biological target: T1, Indoleamine 2,3-dioxygenase 1; assay: Inhibition of recombinant human IDO1 expressed in bacterial expression system using L-Tryptophan as substrate after 25 mins in absence of GSH and tween20 by fluorescence assay
Target sequence in this assay (P14902 whole entry): as the sequence (P14902 whole entry, looked up) above

Oc1nccc(SCc2ccc(Cl)cc2Cl)n1
Ratio IC50 (Homo sapiens): 3
inhibition [1]: < 25%
IC50 [2]: 7.5 µM
IC50 [3]: 20 µM
Activity (LLTC cell line): Non-Toxic
CC50 at 24 h [4]: > 117 µM
IC50 [5]: 0.75 µM
IC50 [6]: 0.2 to 3 µM
IC50 [7]: 4.4 µM
IC50 [8]: 4.3 µM
